Measurements taken from US5556878A, “Δ^6,7 -taxols antineoplatic use and pharmaceutical compositions containing them” (The Upjohn Company, priority 1994, dated 1996).
Values after ≈ are worked out from the molar mass of the structure shown. Where two headings read alike, the source gives them in different places.

Columns and labels:
L1210 leukemia = L1210 leukemia cell proliferation inhibition (Table I); assay type: cell-based; conditions: Mus musculus
From the text: The biological activity of the compounds of this invention has been further confirmed using well known procedures against L1210 leukemia and the results set forth in Table I. The results were obtained using standard well known procedure (Li, L. H.; Kuentzel, S. L.; Murch, L. L.; Pschigoga, L. M.; and W. C. Krueger, "Comparative biological and biochemical effects of nogalamycin and its analogs on L1210 leukemia," Cancer Res. 39:4816-4822 (1979)). The results are expressed as an IC50 which is the drug concentration required to inhibit cell proliferation to 50% of that of untreated control cells. Lower numbers indicated greater activity.

tubulin = test: In vitro tubulin polymerization assay after Gaskin et al.; assay type: biochemical; conditions: 20° C.; for induction of tubulin polymerization in vitro: compared with taxol
From the text: (§1) The biological activity of the 7-deoxy-7β,8β-methanotaxol compounds (Formula II) of the invention has been confirmed using well known procedures.
(§2) The biological activity of the 7-deoxy-7-halotaxol compounds (Formula III) of the invention has been confirmed using well known procedures.

[1] = system: A2780 (human ovarian carcinoma) cells; test: Cytotoxicity in A2780 (human ovarian carcinoma) cells in culture (IC90); assay type: cell-based; conditions: read-out: IC90 (90% growth inhibitory concentration)
From the text: as §2

[2] = system: L1210 mouse leukemia carcinoma cells; test: Cytotoxicity in L1210 mouse leukemia carcinoma cells in culture (IC90); assay type: cell-based; conditions: read-out: IC90 (90% growth inhibitory concentration)
From the text: as §1

[3] = L1210, drug concentration required to inhibit cell proliferation to 50% of untreated control cells, read-out: L1210 (IC50 μg/ml)
[4] = L1210, read-out: L1210 (IC50 μg/ml)

CC(=O)O[C@H]1C(=O)[C@]2(C)C(F)C[C@H]3OC[C@@]3(OC(C)=O)[C@H]2[C@H](OC(=O)c2ccccc2)[C@]2(O)C[C@H](OC(=O)[C@H](OC(=O)OCC(Cl)(Cl)Cl)[C@@H](NC(=O)c3ccccc3)c3ccccc3)C(C)=C1C2(C)C (stereo partly drawn) [Compound 13AA, 2'-{[(2,2,2-Trichloroethyl)-oxy]carbonyl)-7-deoxy-7-fluorotaxol]
IC50 (L1210 leukemia; [3]): 0.054 µg/mL (≈ 0.0524 µM)

CC(=O)O[C@H]1C(=O)[C@]2(C)C(F)C[C@H]3OC[C@@]3(OC(C)=O)[C@H]2[C@H](OC(=O)c2ccccc2)[C@]2(O)C[C@H](OC(=O)[C@H](OC(=O)OCC(Cl)(Cl)Cl)[C@@H](NC(=O)OC(C)(C)C)c3ccccc3)C(C)=C1C2(C)C (stereo partly drawn) [Compound 13DA, N-Debenzoyl-N-(t-butyl)oxycarbonyl-2'-{[(2,2,2-trichloroethyl)oxy]carbonyl}-7-deoxy-7-fluorotaxol]
IC50 (L1210 leukemia; [3]): 0.015 µg/mL (≈ 0.0146 µM)

CC(=O)O[C@H]1C(=O)[C@]23C[C@H]2C[C@H]2OC[C@@]2(OC(C)=O)[C@H]3[C@H](OC(=O)c2ccccc2)[C@]2(O)C[C@H](OC(=O)[C@H](OC(=O)OCC(Cl)(Cl)Cl)[C@@H](NC(=O)c3ccccc3)c3ccccc3)C(C)=C1C2(C)C [Compound 14AA, 2'-{[(2,2,2-Trichloroethyl)oxy]carbonyl}-7-deoxy-7β,8β-methanotaxol]
IC50 (L1210 leukemia; [3]): > 0.1 µg/mL

CC(=O)O[C@H]1C(=O)[C@]23C[C@H]2C[C@H]2OC[C@@]2(OC(C)=O)[C@H]3[C@H](OC(=O)c2ccccc2)[C@]2(O)C[C@H](OC(=O)[C@H](OC(=O)OCC(Cl)(Cl)Cl)[C@@H](NC(=O)OC(C)(C)C)c3ccccc3)C(C)=C1C2(C)C [Compound 14DA, N-Debenzoyl-N-(t-butyl)oxycarbonyl-2'-{[(2,2,2-trichloroethyl)oxy]carbonyl}-7-deoxy-7β,8β-methanotaxol]
IC50 (L1210 leukemia; [3]): 0.012 µg/mL (≈ 0.0119 µM)

CC(=O)O[C@H]1C(=O)[C@]2(C)C=C[C@H]3OC[C@@]3(OC(C)=O)[C@H]2[C@H](OC(=O)c2ccccc2)[C@]2(O)C[C@H](OC(=O)[C@H](OC(=O)OCC(Cl)(Cl)Cl)[C@@H](NC(=O)c3ccccc3)c3ccccc3)C(C)=C1C2(C)C [Compound 15AA, 2'-{[(2,2,2-Trichloroethyl)oxy]carbonyl)-7-deoxy-Δ^6,7-taxol]
IC50 (L1210 leukemia; [3]): 0.012 µg/mL (≈ 0.0119 µM)

CC(=O)O[C@H]1C(=O)[C@]2(C)C=C[C@H]3OC[C@@]3(OC(C)=O)[C@H]2[C@H](OC(=O)c2ccccc2)[C@]2(O)C[C@H](OC(=O)[C@H](O)[C@@H](NC(=O)c3ccccc3)c3ccccc3)C(C)=C1C2(C)C [Compound 16A, 7-Deoxy-Δ^6,7-taxol]
IC50 (L1210 leukemia; [3]): 0.0042 µg/mL (≈ 0.00502 µM)

CC(=O)O[C@H]1C(=O)[C@]2(C)C=C[C@H]3OC[C@@]3(OC(C)=O)[C@H]2[C@H](OC(=O)c2ccccc2)[C@]2(O)C[C@H](OC(=O)[C@H](O)[C@@H](NC(=O)OC(C)(C)C)c3ccccc3)C(C)=C1C2(C)C [Compound 16D, N-Debenzoyl-N-(t-butyl)oxycarbonyl-7-deoxy-Δ^6,7-taxol]
IC50 (L1210 leukemia; [4]): 0.0016 µg/mL (≈ 0.00192 µM)

CC(=O)O[C@H]1C(=O)[C@]2(C)C=C[C@H]3OC[C@@]3(OC(C)=O)[C@H]2[C@H](OC(=O)c2ccccc2)[C@]2(O)C[C@H](OC(=O)[C@H](O)[C@@H](NC(=O)NC(C)(C)C)c3ccccc3)C(C)=C1C2(C)C [Compound 16F, 13-(N-t-Butylurea-β-phenyl-isoserinyl)-Δ^6,7-baccatin III]
IC50 (L1210 leukemia; [4]): 0.0032 µg/mL (≈ 0.00385 µM)

CC(=O)O[C@H]1C(=O)[C@]2(C)C(F)C[C@H]3OC[C@@]3(OC(C)=O)[C@H]2[C@H](OC(=O)c2ccccc2)[C@]2(O)C[C@H](OC(=O)[C@H](O)[C@@H](NC(=O)OC(C)(C)C)c3ccccc3)C(C)=C1C2(C)C (stereo partly drawn) [Compound 20, N-Debenzoyl-N-(t-butyl)oxycarbonyl-7-deoxy-7-fluorotaxol]
IC50 (L1210 leukemia; [3]): 0.0038 µg/mL (≈ 0.00446 µM)

CC(=O)O[C@H]1C(=O)[C@]23C[C@H]2C[C@H]2OC[C@@]2(OC(C)=O)[C@H]3[C@H](OC(=O)c2ccccc2)[C@]2(O)C[C@H](OC(=O)[C@H](O)[C@@H](NC(=O)OC(C)(C)C)c3ccccc3)C(C)=C1C2(C)C [Compound 23, N-Debenzoyl-N-(t-butyl)oxycarbonyl-7-deoxy-7β,8β-methanotaxol]
IC50 (L1210 leukemia; [3]): 0.0046 µg/mL (≈ 0.00553 µM)

CC(=O)O[C@H]1C(=O)[C@]2(C)C(F)C[C@H]3OC[C@@]3(OC(C)=O)[C@H]2[C@H](OC(=O)c2ccccc2)[C@]2(O)C[C@H](OC(=O)[C@H](O)[C@@H](NC(=O)c3ccccc3)c3ccccc3)C(C)=C1C2(C)C (stereo partly drawn) [Compound IIIb, 7-Deoxy-7-fluorotaxol]
potency in tubulin polymerization assay relative to taxol (tubulin): approximately half as potent as taxol | induction of tubulin polymerization in vitro (tubulin): able to induce tubulin polymerization in vitro at 20 °C in a manner very similar to taxol | IC90 [1]: 0.016 µg/mL (≈ 0.0187 µM) | IC50 (L1210 leukemia; [3]): 0.01 µg/mL (≈ 0.0117 µM)

CC(=O)O[C@H]1C(=O)[C@]23C[C@H]2C[C@H]2OC[C@@]2(OC(C)=O)[C@H]3[C@H](OC(=O)c2ccccc2)[C@]2(O)C[C@H](OC(=O)[C@H](O)[C@@H](NC(=O)c3ccccc3)c3ccccc3)C(C)=C1C2(C)C [Compound IIb, 7-Deoxy-7β,8β-methanotaxol]
induction of tubulin polymerization in vitro (tubulin): able to induce tubulin polymerization in vitro at 20 °C in a manner very similar to taxol | IC50 (L1210 leukemia; [3]): 0.012 µg/mL (≈ 0.0144 µM) | IC90 [2]: 0.025 µg/mL (≈ 0.0299 µM)

CC(=O)O[C@H]1C(=O)[C@@]2(C)[C@H]([C@H](OC(=O)c3ccccc3)[C@]3(O)C[C@H](OC(=O)[C@H](O)[C@@H](NC(=O)c4ccccc4)c4ccccc4)C(C)=C1C3(C)C)[C@]1(OC(C)=O)CO[C@@H]1C[C@@H]2O [Taxol]
IC90 [1]: 0.007 µg/mL (≈ 0.0082 µM) | IC50 (L1210 leukemia; [3]): 0.015 µg/mL (≈ 0.0176 µM) | IC90 [2]: 0.06 µg/mL (≈ 0.0703 µM)

CC(=O)O[C@@]12CO[C@@H]1C[C@H](O)[C@@]1(C)C(=O)[C@H](O)C3=C(C)[C@@H](OC(=O)[C@H](O)[C@@H](NC(=O)OC(C)(C)C)c4ccccc4)C[C@@](O)([C@@H](OC(=O)c4ccccc4)[C@H]21)C3(C)C [Taxotere, reference compound]
IC50 (L1210 leukemia; [3]): 0.004 µg/mL (≈ 0.00495 µM)
